# From ChEMBL document CHEMBL1141975, “The development of potent and selective bisarylmaleimide GSK3 inhibitors” (Bioorg Med Chem Lett, 2005)
# Assays:
# [1] = molecular target: Glycogen synthase kinase-3 (Homo sapiens, UniProt P49840+P49841); experiment: Inhibitory concentration against the Glycogen synthase kinase-3; type: protein assay
# [2] = organism: Homo sapiens; experiment: IC50 ratio between CDK4 and GSK-3
# [3] = organism: Homo sapiens; experiment: IC50 ratio between PKCbeta II and GSK-3
# [4] = molecular target: Glycogen synthase kinase-3 beta (Homo sapiens, UniProt P49841); experiment: Inhibitory concentration to inhibit Ser396 phosphorylation of tau, a natural substrate of GSK-3 in SY5Y cells; type: functional, cell-based
# Glycogen synthase kinase-3 beta, sequence (P49841 whole entry): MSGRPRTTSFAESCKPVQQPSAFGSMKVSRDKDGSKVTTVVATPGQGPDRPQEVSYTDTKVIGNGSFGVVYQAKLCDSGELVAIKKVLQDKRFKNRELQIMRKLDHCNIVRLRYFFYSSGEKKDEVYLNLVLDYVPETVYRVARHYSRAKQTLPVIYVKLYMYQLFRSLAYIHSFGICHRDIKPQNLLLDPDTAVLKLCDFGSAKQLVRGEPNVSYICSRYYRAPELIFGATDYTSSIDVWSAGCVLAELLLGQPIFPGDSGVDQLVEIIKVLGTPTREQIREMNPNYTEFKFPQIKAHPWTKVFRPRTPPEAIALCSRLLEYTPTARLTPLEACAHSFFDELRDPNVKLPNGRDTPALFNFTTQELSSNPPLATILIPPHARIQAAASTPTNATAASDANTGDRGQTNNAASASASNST
IC50 [1],Selectivity [2],Selectivity [3],IC50 [4],Compound
3.2 nM,89,190,–,CN(C)C(=O)N1CCn2cc(C3=C(c4cccc5c4OCO5)C(=O)NC3=O)c3cccc(c32)C1
4.8 nM,15,133,–,O=C1NC(=O)C(c2cnc3cccnn23)=C1c1cn2c3c(cccc13)CNCC2
3.2 nM,4550,> 6300,11 nM,O=C1NC(=O)C(c2cnc3cnccn23)=C1c1cn2c3c(cccc13)CN(C(=O)N1CCOCC1)CC2
34 nM,–,–,–,O=C1NC(=O)C(c2cn3c4c(cccc24)CNCC3)=C1c1cccc2sccc12
1.9 nM,483,457,111 nM,CC(=O)N1CCn2cc(C3=C(c4cnc5ccccn45)C(=O)NC3=O)c3cccc(c32)C1
3.2 nM,6,54,–,O=C1NC(=O)C(c2cncc3ccoc23)=C1c1cn2c3c(cccc13)CNCC2
12 nM,13,28,–,O=C1NC(=O)C(c2cnc3ccccn23)=C1c1cn2c3c(cccc13)CNCC2
1.1 nM,77,133,–,CC(=O)N1CCn2cc(C3=C(c4cccc5c4OCC5)C(=O)NC3=O)c3cccc(c32)C1
120 nM,20,112,–,O=C1NC(=O)C(c2cnc3ncccn23)=C1c1cn2c3c(cccc13)CNCC2
0.9 nM,60,422,–,CC(=O)N1CCn2cc(C3=C(c4cncc5ccoc45)C(=O)NC3=O)c3cccc(c32)C1
3.3 nM,7,53,–,O=C1NC(=O)C(c2cn3c4c(cccc24)CNCC3)=C1c1cccc2c1OCC2
2.5 nM,50,240,–,CC(=O)N1CCn2cc(C3=C(c4cccc5c4OCO5)C(=O)NC3=O)c3cccc(c32)C1
2.7 nM,35,89,–,CN(C)C(=O)N1CCn2cc(C3=C(c4cccc5ccoc45)C(=O)NC3=O)c3cccc(c32)C1
0.8 nM,158,–,–,O=C1NC(=O)C(c2cncc3ccoc23)=C1c1cn2c3c(cccc13)CN(C(=O)N1CCOCC1)CC2 [BISARYLMALEIMIDE 2]
27 nM,1,9,–,O=C1NC(=O)C(c2cn3c4c(cccc24)CNCC3)=C1c1cccc2c1ccn2CCCO
4.7 nM,370,235,38 nM,CN(C)C(=O)N1CCn2cc(C3=C(c4ccn5ncccc45)C(=O)NC3=O)c3cccc(c32)C1
150 nM,–,–,–,O=C1NC(=O)C(c2cccc3cc[nH]c23)=C1c1cn2c3c(cccc13)CNCC2
60 nM,19,> 334,–,O=C1NC(=O)C(c2cnc3cnccn23)=C1c1cn2c3c(cccc13)CNCC2
0.8 nM,2650,1740,7.7 nM,O=C1NC(=O)C(c2cnc3ccccn23)=C1c1cn2c3c(cccc13)CN(C(=O)C1CCOCC1)CC2
330 nM,14,3,–,O=C1NC(=O)C(c2cnc3ccncn23)=C1c1cn2c3c(cccc13)CNCC2
19 nM,7,7,–,CC(=O)N1CCn2cc(C3=C(c4cccc5ccsc45)C(=O)NC3=O)c3cccc(c32)C1
45 nM,1,15,–,O=C1NC(=O)C(c2cccc3ccsc23)=C1c1cn2c3c(cccc13)CNCC2
1.6 nM,907,635,–,CN(C)C(=O)N1CCn2cc(C3=C(c4cnc5ccccn45)C(=O)NC3=O)c3cccc(c32)C1
71 nM,> 282,> 282,–,O=C1NC(=O)C(c2cnc3ccncn23)=C1c1cn2c3c(cccc13)CN(C(=O)N1CCOCC1)CC2
2 nM,2420,281,–,O=C1NC(=O)C(c2cnc3ccccn23)=C1c1cn2c3c(cccc13)CN(C(=O)N1CCCCC1)CC2
1.3 nM,1900,–,–,O=C1NC(=O)C(c2ccn3ncccc23)=C1c1cn2c3c(cccc13)CN(C(=O)N1CCOCC1)CC2
1.9 nM,10000,> 1060,53 nM,O=C1NC(=O)C(c2cnc3ncccn23)=C1c1cn2c3c(cccc13)CN(C(=O)N1CCCCC1)CC2

# The next lines start with the compound.
Compound,IC50 [1],Selectivity [2],Selectivity [3],IC50 [4]
O=C1NC(=O)C(c2cn3c4c(cccc24)CNCC3)=C1c1ccc2c(c1)COC2,83 nM,–,–,–
CC(C)C(=O)N1CCn2cc(C3=C(c4cnc5ccccn45)C(=O)NC3=O)c3cccc(c32)C1,1.8 nM,2020,522,5 nM
O=C1NC(=O)C(c2cn3c4c(cccc24)CNCC3)=C1c1ccc2c(c1)OCO2,27 nM,18,202,–
O=C1NC(=O)C(c2cn3c4c(cccc24)CNCC3)=C1c1cccc2c1CCO2,130 nM,–,–,–
CCC(=O)N1CCn2cc(C3=C(c4cncc5ccoc45)C(=O)NC3=O)c3cccc(c32)C1,1 nM,98,375,–
O=C1NC(=O)C(c2cn3c4c(cccc24)CNCC3)=C1c1cccc2occc12,41 nM,1,39,–
O=C1NC(=O)C(c2cccc3ccoc23)=C1c1cn2c3c(cccc13)CNCC2,3.4 nM,5,183,–
O=C1NC(=O)C(c2cnc3cnccn23)=C1c1cn2c3c(cccc13)CN(C(=O)N1CCCCC1)CC2,2.1 nM,8920,> 9500,8.7 nM
O=C1NC(=O)C(c2cn3c4c(cccc24)CNCC3)=C1c1cccc2c1OCO2,13 nM,2,103,–
O=C1NC(=O)C(c2ccn3ncccc23)=C1c1cn2c3c(cccc13)CNCC2,30 nM,10,18,–
O=C1NC(=O)C(c2cn3c4c(cccc24)CNCC3)=C1c1coc2ccccc12,64 nM,–,–,–
O=C1NC(=O)C(c2cnc3cccnn23)=C1c1cn2c3c(cccc13)CN(C(=O)N1CCCCC1)CC2 [BISARYLMALEIMIDE 1],1.6 nM,1330,1300,0.3 nM
O=C1NC(=O)C(c2cnc3ccccn23)=C1c1cn2c3c(cccc13)CN(C(=O)N1CCOCC1)CC2,1.3 nM,–,–,–
O=C1NC(=O)C(c2cncc3ccoc23)=C1c1cn2c3c(cccc13)CN(C(=O)N1CCCCC1)CC2,2.1 nM,92,108,–
Cn1ccc2c(C3=C(c4cn5c6c(cccc46)CNCC5)C(=O)NC3=O)cccc21,33 nM,1,28,–
CC(=O)N1CCn2cc(C3=C(c4cccc5ccoc45)C(=O)NC3=O)c3cccc(c32)C1,1.5 nM,25,80,–
O=C1NC(=O)C(c2cnc3ncccn23)=C1c1cn2c3c(cccc13)CN(C(=O)N1CCOCC1)CC2,1.7 nM,8580,> 11800,297 nM
CN(C)C(=O)N1CCn2cc(C3=C(c4cncc5ccoc45)C(=O)NC3=O)c3cccc(c32)C1,1.2 nM,112,–,–
